Columns and labels:
[1] = system: soybean sudden death syndrome (fungi of the genus Fusarium); assay: Field trial against soybean sudden death syndrome (seed treatment); format: in vivo, Fusarium virguliforme; set-up: key to SDS incidence: % of affected plants; SDS severity: scale not given here; settings: for SDS severity: average severity of symptoms in the plots at harvest time; for SDS incidence: percentage of affected plants at harvest time in the fall
Description: (§1) A field trial was conducted to determine the efficacy of compounds as described herein against soybean sudden death syndrome. Soybean seeds were planted at the start of the spring growing season in a location where fungi of the genus Fusarium were endemic. Nothing special was done to encourage growth of the fungus or development of the SDS disease.
(§2) Compounds listed in Table 1 below were used to treat soybean seeds prior to planting.
(§3) Seeds treated with oxamyl, at a rate of 1 mg per seed, and non-treated seeds (NT) were included as controls.
(§4) Other typical agronomic data, including counts of soybean cyst nematode (SCN) eggs, were also collected throughout the trial. The percentage of affected plants and the observed SDS disease severity are graphically depicted in FIGS. 1 and 2, respectively.

[2] = system: soybean cyst nematode (SCN); assay: Field trial: counts of soybean cyst nematode (SCN) eggs; format: in vivo; settings: for Fall Eggs/100 cc: SCN egg count in fall; for Spring Eggs/100 cc: SCN egg count in spring; for Mean RF: SCN eggs
Description: as §1, §2, §3, §4

[3] = soybean seed treatment 0.5 mg/seed
[4] = soybean seed treatment 1 mg/seed

| Compound | SDS severity [1, 3] | SDS incidence [1, 3] | SDS severity [1, 4] | SDS incidence [1, 4] | Fall Eggs/100 cc [2, 3] | Spring Eggs/100 cc [2, 3] | Mean RF [2, 3] | Fall Eggs/100 cc [2, 4] | Spring Eggs/100 cc [2, 4] | Mean RF [2, 4] |
| --- | --- | --- | --- | --- | --- | --- | --- | --- | --- | --- |
| c1ccc(-c2noc(-c3cccs3)n2)cc1 [DC1822] | 2 | 45 | 1.5 | 28.75 | 2600 eggs/100 cc | 1175 eggs/100 cc | 3.875 | 2100 eggs/100 cc | 700 eggs/100 cc | 6.425 |
| Clc1ccc(-c2noc(-c3ccco3)n2)cc1 [DC5523] | 2 | 47.5 | 2 | 26.25 | 1925 eggs/100 cc | 675 eggs/100 cc | 5.35 | 1725 eggs/100 cc | 800 eggs/100 cc | 4.325 |
| Cc1cc(Cl)ccc1-c1noc(-c2ccco2)n1 [DC5823] | 2.25 | 55 | 2.5 | 46.25 | 3325 eggs/100 cc | 1075 eggs/100 cc | 3.35 | 1100 eggs/100 cc | 1450 eggs/100 cc | 1.625 |
| CNC(=O)O/N=C(\SC)C(=O)N(C)C [Oxamyl, oxamyl, reference compound] |  |  | 1.5 | 32.5 |  |  |  | 3075 eggs/100 cc | 1050 eggs/100 cc | 6.65 |

— patent US20180228158A1, “COMPOSITIONS AND METHODS FOR CONTROL OF DISEASE” (Monsanto Technology LLC, priority 2017, published 2018)
